# Experimental data as given in ChEMBL document CHEMBL5724696, “Autophagy assay results for EUbOPEN Chemogenomics Library” (2024).
# Where “and” joins values, the source holds several entries; their conditions need not be identical. Equal entries are not always repeated.
# How the values were obtained:
# Assay type in all cases: functional, Homo sapiens
# TERT-RPE1 = assay: (§1) Here: values are normalized to the negative (DMSO; defined as 0% autophagy induction) and positive (250nM Torin1; mTOR inhibitor; defined as maximal inducer of autophagy = 100%) control compounds and represented as % of autophagy induction. […] The impact of autophagy induction on cells is complex and depends on the affected target. As such, the magnitude of a phenotype may not be equally mirrored in the %-value of autophagy induction and vice versa. The dynamics of the induction may indicate the mode of activation: e.g. activation via phosphorylation or a signaling cascade may occur fast, while activation via transcription factors may take considerably longer. […] Of note, treatment concentrations may be sub-optimal for specific compounds, leading to false negative annotations.; conditions: Culturing Media DMEM/F12 (1:1), 1 % Penicillin/Streptomycin, 10% Fetal bovin serum Add-On: No, Screening Media Control DMEM/F12 (1:1), Screening Media Samples DMEM/F12 (1:1)
# U2OS [1] = assay: as §1; conditions: Culturing Media DMEM, 1 % Penicillin/Streptomycin, 10% Fetal bovin serum Add-On: No, Screening Media Control DMEM, Screening Media Samples DMEM
# U2OS [2] = assay: as §1; conditions: Culturing Media DMEM, 1 % Penicillin/Streptomycin, 10% Fetal bovin serum Add-On: No, Screening Media Control DMEM, Screening Media Samples DMEM; remark: listed apart in the source
# [3] = Compound Concentration 0.5 uM, Timepoint 12 hours
# [4] = Compound Concentration 0.5 uM, Timepoint 24 hours
# [5] = Compound Concentration 0.5 uM, Timepoint 36 hours
# [6] = Compound Concentration 0.5 uM, Timepoint 60 hours
# [7] = Compound Concentration 2 uM, Timepoint 12 hours
# [8] = Compound Concentration 2 uM, Timepoint 24 hours
# [9] = Compound Concentration 2 uM, Timepoint 36 hours
# [10] = Compound Concentration 2 uM, Timepoint 60 hours
# [11] = Compound Concentration 10 uM, Timepoint 12 hours
# [12] = Compound Concentration 10 uM, Timepoint 24 hours
# [13] = Compound Concentration 10 uM, Timepoint 36 hours
# [14] = Compound Concentration 10 uM, Timepoint 60 hours
compound,measurement,setting,value
CCCNS(=O)(=O)Nc1ncnc(OCCOc2ncc(Br)cn2)c1-c1ccc(Br)cc1,autophagy induction,"TERT-RPE1; Compound Concentration 0.5 uM, Timepoint 12 hours, 12 h, 0.5 µM",-0.7197% and -7.3982%
same,autophagy induction,"TERT-RPE1; Compound Concentration 0.5 uM, Timepoint 24 hours, 24 h, 0.5 µM",0.659% and -8.96%
same,autophagy induction,"TERT-RPE1; Compound Concentration 0.5 uM, Timepoint 36 hours, 36 h, 0.5 µM",-3.018% and -8.201%
same,autophagy induction,"TERT-RPE1; Compound Concentration 0.5 uM, Timepoint 60 hours, 60 h, 0.5 µM",-5.286% and -10.1731%
same,autophagy induction,"TERT-RPE1; Compound Concentration 2 uM, Timepoint 24 hours, 24 h, 2 µM",-0.7464% and 17.5664%
same,autophagy induction,"TERT-RPE1; Compound Concentration 2 uM, Timepoint 36 hours, 36 h, 2 µM",-1.802% and 12.9792%
same,autophagy induction,"TERT-RPE1; Compound Concentration 2 uM, Timepoint 60 hours, 60 h, 2 µM",-3.01% and 8.651%
same,autophagy induction,"TERT-RPE1; Compound Concentration 10 uM, Timepoint 12 hours, 12 h, 10 µM",-3.714% and 17.3261%
same,autophagy induction,U2OS [1]; [3],-3.964%
same,autophagy induction,U2OS [1]; [4],-4.032%
same,autophagy induction,U2OS [1]; [5],-61.3535%
same,autophagy induction,U2OS [1]; [6],-1.132%
same,autophagy induction,U2OS [1]; [7],-0.4685%
same,autophagy induction,U2OS [1]; [8],-1.227%
same,autophagy induction,U2OS [1]; [9],-59.7666%
same,autophagy induction,U2OS [1]; [10],-0.5161%
same,autophagy induction,U2OS [1]; [11],11.7925%
same,autophagy induction,U2OS [1]; [12],5.282%
same,autophagy induction,U2OS [1]; [13],-57.2377%
same,autophagy induction,U2OS [1]; [14],-0.5877%
same,autophagy induction,U2OS [2]; [3],2.901%
same,autophagy induction,U2OS [2]; [4],-2.846%
same,autophagy induction,U2OS [2]; [5],0.07503%
same,autophagy induction,U2OS [2]; [6],-9.912%
same,autophagy induction,U2OS [2]; [7],12.0444%
same,autophagy induction,U2OS [2]; [8],9.078%
same,autophagy induction,U2OS [2]; [9],7.396%
same,autophagy induction,U2OS [2]; [10],-1.934%
same,autophagy induction,U2OS [2]; [11],26.4347%
same,autophagy induction,U2OS [2]; [12],18.1089%
same,autophagy induction,U2OS [2]; [13],17.8738%
same,autophagy induction,U2OS [2]; [14],1.732%
COc1ccc(S(=O)(=O)c2cc(OC)ccc2S(=O)(=O)c2ccc([C@H](C)NS(C)(=O)=O)cc2)cc1,autophagy induction,TERT-RPE1; [3],-6.482%
same,autophagy induction,TERT-RPE1; [4],-9.039%
same,autophagy induction,TERT-RPE1; [5],-9.847%
same,autophagy induction,TERT-RPE1; [6],-11.3186%
same,autophagy induction,TERT-RPE1; [7],-6.676%
same,autophagy induction,TERT-RPE1; [8],-10.1921%
same,autophagy induction,TERT-RPE1; [9],-12.367%
same,autophagy induction,TERT-RPE1; [10],-10.4808%
same,autophagy induction,TERT-RPE1; [11],-5.338%
same,autophagy induction,TERT-RPE1; [12],-8.134%
same,autophagy induction,TERT-RPE1; [13],-7.872%
same,autophagy induction,TERT-RPE1; [14],-5.175%
same,autophagy induction,U2OS [1]; [3],5.1145%
same,autophagy induction,U2OS [1]; [4],1.212%
same,autophagy induction,U2OS [1]; [5],0.9926%
same,autophagy induction,U2OS [1]; [6],0.6082%
same,autophagy induction,U2OS [1]; [7],2.687%
same,autophagy induction,U2OS [1]; [8],1.009%
same,autophagy induction,U2OS [1]; [9],1.125%
same,autophagy induction,U2OS [1]; [10],0.5012%
same,autophagy induction,U2OS [1]; [11],-3.021%
same,autophagy induction,U2OS [1]; [12],-0.6189%
same,autophagy induction,U2OS [1]; [13],-0.5987%
same,autophagy induction,U2OS [1]; [14],-0.1479%
same,autophagy induction,U2OS [2]; [3],5.054%
same,autophagy induction,U2OS [2]; [4],-4.288%
same,autophagy induction,U2OS [2]; [5],-4.858%
same,autophagy induction,U2OS [2]; [6],-2.8349%
same,autophagy induction,U2OS [2]; [7],5.036%
same,autophagy induction,U2OS [2]; [8],-1.126%
same,autophagy induction,U2OS [2]; [9],2.146%
same,autophagy induction,U2OS [2]; [10],-5.198%
same,autophagy induction,U2OS [2]; [11],5.742%
same,autophagy induction,U2OS [2]; [12],6.2878%
same,autophagy induction,U2OS [2]; [13],4.231%
same,autophagy induction,U2OS [2]; [14],-3.951%
